Measurements: patent publication US20240025856A1, “1,2,3,4-TETRAHYDROQUINOLINE DERIVATIVES AS INHIBITORS OF THE YAP/TAZ-TEAD ACTIVATION FOR TREATING CANCER” (KATHOLIEKE UNIVERSITEIT LEUVEN, priority 2020, published 2024)

System: YAP/TAZ-TEAD transcription
Experiment: Reporter gene assay for measuring the inhibition of YAP/TAZ-TEAD transcription (TEAD-responsive element luciferase reporter in Hek293T cells)
Assay type: cell-based
Settings: Homo sapiens, HEK-293T, 24 h, Hek293T cells transiently transfected with TEAD-responsive element luciferase reporter; 24 hours incubation
In short: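 Readout is SteadyLite luciferase luminescence from a TEAD-responsive element reporter transiently transfected into Hek293T cells, exposed to compounds for 24 h at 37 °C/5% CO2. IC50 derived from percent inhibition, scaled between vehicle basal activity (0%) and positive control inhibitor (100%).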

C=CC(=O)N(C)C1Cc2ccccc2N(c2ccc(C(F)(F)F)cc2)C1 (centres unmarked) [compound 132, N-methyl-N-(1-(4-(trifluoromethyl)phenyl)-1,2,3,4-tetrahydroquinolin-3-yl)acrylamide]
IC50: < 1000 nM

C=CC(=O)N(CCOC)C1Cc2ccccc2N(c2ccc(C(F)(F)F)cc2)C1 (centres unmarked) [compound 133, N-(2-methoxyethyl)-N-(1-(4-(trifluoromethyl)phenyl)-1,2,3,4-tetrahydroquinolin-3-yl)acrylamide]
IC50: 1000 to 20000 nM

C=CC(=O)N(CCOC)CC1Cc2ccccc2N(c2ccc(C(F)(F)F)cc2)C1 (centres unmarked) [compound 135, N-(2-methoxyethyl)-N-((1-(4-(trifluoromethyl)phenyl)-1,2,3,4-tetrahydroquinolin-3-yl)methyl)acrylamide]
IC50: < 1000 nM

C=CC(=O)NC1Cc2c(C(N)=O)cccc2N(c2ccc(C(F)(F)F)cc2)C1 (centres unmarked) [compound 136, 3-acrylamido-1-(4-(trifluoromethyl)phenyl)-1,2,3,4-tetrahydroquinoline-5-carboxamide]
IC50: < 1000 nM

C=CC(=O)NC1Cc2c(-c3nnn[nH]3)cccc2N(c2ccc(C(F)(F)F)cc2)C1 (centres unmarked) [compound 137, N-(5-(1H-tetrazol-5-yl)-1-(4-(trifluoromethyl)phenyl)-1,2,3,4-tetrahydroquinolin-3-yl)acrylamide]
IC50: > 20000 nM

C=CC(=O)NC1Cc2c(CN)cccc2N(c2ccc(C(F)(F)F)cc2)C1 (centres unmarked) [compound 138, N-(5-(aminomethyl)-1-(4-(trifluoromethyl)phenyl)-1,2,3,4-tetrahydroquinolin-3-yl)acrylamide]
IC50: < 1000 nM

C=CC(=O)NCC1Cc2ccccc2N([C@H]2CC[C@@H](C(F)(F)F)CC2)C1 (stereo partly drawn) [compound 144, cis-N-((1-(4-(trifluoromethyl)cyclohexyl)-1,2,3,4-tetrahydroquinolin-3-yl)methyl)acrylamide]
IC50: < 1000 nM

C=CC(=O)NCC1Cc2ccccc2N(C2CCC(F)(F)CC2)C1 (centres unmarked) [compound 145, N-((1-(4,4-difluorocyclohexyl)-1,2,3,4-tetrahydroquinolin-3-yl)methyl)acrylamide]
IC50: < 1000 nM

C=CC(=O)NC1Cc2c(ccnc2N)N(c2ccc(C(F)(F)F)cc2)C1 (centres unmarked) [compound 146, N-(5-amino-1-(4-(trifluoromethyl)phenyl)-1,2,3,4-tetrahydro-1,6-naphthyridin-3-yl)acrylamide]
IC50: < 1000 nM

CCC(=O)NCC1Cc2ccccc2N(c2ccc(C#N)cc2)C1 (centres unmarked) [compound 148, N-((1-(4-cyanophenyl)-1,2,3,4-tetrahydroquinolin-3-yl)methyl)propionamide]
IC50: 1000 to 20000 nM

C=CC(=O)NCC1Cc2ccccc2N(c2ccc(C#N)nc2)C1 (centres unmarked) [compound 151, N-((1-(6-cyanopyridin-3-yl)-1,2,3,4-tetrahydroquinolin-3-yl)methyl)acrylamide]
IC50: < 1000 nM

CCC(=O)NCC1Cc2ccccc2N(c2ccc(C(F)F)nc2)C1 (centres unmarked) [compound 152, N-((1-(6-(difluoromethyl)pyridin-3-yl)-1,2,3,4-tetrahydroquinolin-3-yl)methyl)propionamide]
IC50: 1000 to 20000 nM

CC(=O)NCC1Cc2c(C(=O)O)cccc2N(c2ccc(C(F)(F)F)cc2)C1 (centres unmarked) [compound 155, 3-(acetamidomethyl)-1-(4-(trifluoromethyl)phenyl)-1,2,3,4-tetrahydroquinoline-5-carboxylic acid]
IC50: > 20000 nM

C=CC(=O)NCC1Cc2c(C(=O)NS(C)(=O)=O)cccc2N(c2ccc(C(F)(F)F)cc2)C1 (centres unmarked) [compound 157, 3-(acrylamidomethyl)-N-(methylsulfonyl)-1-(4-(trifluoromethyl)phenyl)-1,2,3,4-tetrahydroquinoline-5-carboxamide]
IC50: > 20000 nM

C=CC(=O)NCC1Cc2ccccc2N(c2ccc(C=O)cc2)C1 (centres unmarked) [compound 159, N-((1-(4-formylphenyl)-1,2,3,4-tetrahydroquinolin-3-yl)methyl)acrylamide]
IC50: < 1000 nM

C=CC(=O)NC1Cc2c(C(=O)NS(C)(=O)=O)cccc2N(c2ccc(C(F)(F)F)cc2)C1 (centres unmarked) [compound 160, 3-acrylamido-N-(methylsulfonyl)-1-(4-(trifluoromethyl)phenyl)-1,2,3,4-tetrahydroquinoline-5-carboxamide]
IC50: > 20000 nM

C=CC(=O)NC1Cc2c(CC(=O)O)cccc2N(c2ccc(C(F)(F)F)cc2)C1 (centres unmarked) [compound 162, 2-(3-acrylamido-1-(4-(trifluoromethyl)phenyl)-1,2,3,4-tetrahydroquinolin-5-yl)acetic acid]
IC50: > 20000 nM

C=CC(=O)NC1Cc2c(CC(=O)NS(C)(=O)=O)cccc2N(c2ccc(C(F)(F)F)cc2)C1 (centres unmarked) [compound 165, N-(5-(2-(methylsulfonamido)-2-oxoethyl)-1-(4-(trifluoromethyl)phenyl)-1,2,3,4-tetrahydroquinolin-3-yl)acrylamide]
IC50: > 20000 nM

C=CC(=O)NC1Cc2c(-c3noc(=O)[nH]3)cccc2N(c2ccc(C(F)(F)F)cc2)C1 (centres unmarked) [compound 166, N-(5-(5-oxo-4,5-dihydro-1,2,4-oxadiazol-3-yl)-1-(4-(trifluoromethyl)phenyl)-1,2,3,4-tetrahydroquinolin-3-yl)acrylamide]
IC50: > 20000 nM

C=CC(=O)NCC1Cc2c(-c3noc(=O)[nH]3)cccc2N(c2ccc(C(F)(F)F)cc2)C1 (centres unmarked) [compound 167, N-((5-(5-oxo-4,5-dihydro-1,2,4-oxadiazol-3-yl)-1-(4-(trifluoromethyl)phenyl)-1,2,3,4-tetrahydroquinolin-3-yl)methyl)acrylamide]
IC50: > 20000 nM

C=CC(=O)NC1Cc2ccccc2N(C(=O)c2ccccc2)C1 (centres unmarked) [compound 172, N-(1-benzoyl-1,2,3,4-tetrahydroquinolin-3-yl)acrylamide]
IC50: > 20000 nM

C=CC(=O)NCC1Cc2ccccc2N(Cc2ccccc2)C1 (centres unmarked) [compound 176, N-((1-benzyl-1,2,3,4-tetrahydroquinolin-3-yl)methyl)acrylamide]
IC50: < 1000 nM

C=CC(=O)NCC1Cc2ccccc2N(C(=O)c2ccccc2)C1 (centres unmarked) [compound 177, N-((1-benzoyl-1,2,3,4-tetrahydroquinolin-3-yl)methyl)acrylamide]
IC50: < 1000 nM

C=CC(=O)NCC1Cc2ccccc2N(CC2CCCCC2)C1 (centres unmarked) [compound 179, N-((1-(cyclohexylmethyl)-1,2,3,4-tetrahydroquinolin-3-yl)methyl)acrylamide]
IC50: < 1000 nM

C=CC(=O)NCC1Cc2ccccc2N(C(=O)C2CCCCC2)C1 (centres unmarked) [compound 180, N-((1-(cyclohexanecarbonyl)-1,2,3,4-tetrahydroquinolin-3-yl)methyl)acrylamide]
IC50: < 1000 nM

C=CC(=O)NC1Cc2ccccc2N(Cc2cccc(C(F)(F)F)c2)C1 (centres unmarked) [compound 182, N-(1-(3-(trifluoromethyl)benzyl)-1,2,3,4-tetrahydroquinolin-3-yl)acrylamide]
IC50: < 1000 nM

O=S(=O)(O)CCNCC1Cc2ccccc2N(c2ccc(C(F)(F)F)cc2)C1 (centres unmarked) [compound 183, 2-(((1-(4-(trifluoromethyl)phenyl)-1,2,3,4-tetrahydroquinolin-3-yl)methyl)amino)ethane-1-sulfonic acid]
IC50: > 20000 nM

C=CC(=O)NCC1Cc2ccccc2N(Cc2cccc(C(F)(F)F)c2)C1 (centres unmarked) [compound 185, N-((1-(3-(trifluoromethyl)benzyl)-1,2,3,4-tetrahydroquinolin-3-yl)methyl)acrylamide]
IC50: < 1000 nM

C=CC(=O)NC1Cc2ccccc2N(S(=O)(=O)c2cccc(C(F)(F)F)c2)C1 (centres unmarked) [compound 186, N-(1-((3-(trifluoromethyl)phenyl)sulfonyl)-1,2,3,4-tetrahydroquinolin-3-yl)acrylamide]
IC50: < 1000 nM
